The target in assay [1] is T1, poly-ADP-ribose polymerase from rat liver (Rattus norvegicus, UniProt P27008).
T1 construct: We have isolated the poly-ADP-ribose polymerase from rat liver; from tissue; host or cells: rat liver
Briefly: In vitro PARP inhibition on isolated enzyme. The assay is classed as biochemical. The settings on record: isolated rat liver enzyme; ± SEM from four parallel measurements; read-out: PARP I0.5 mg/l (converted). The method, then:
We have isolated the poly-ADP-ribose polymerase from rat liver according to the article Shah.G. M.,Anal Biochem, 227, 1-13 (1995).
We have determined the PARP activation in 130 μl of reaction mixture, which consists of: 100 mM Tris-HCl puffer, pH 8.0, 10 mM MgCl2, 10% glycerol, 1.5 mM DTT, 100 μg of (32P), or (3H), NAD+, 10 μg of histone. We have stopped the reaction after 10 minutes with 8% perchloric acid and seperated the protein through centrifugation (10 minutes, 10.000×g). We have washed the precipitate with 8% perchloric acid, and we measured the radioactivity connected to the protein with scintillation counter.

The test system of another assay is male SPRD rats. Nature of the assay: Reperfusion induced arrhythmia after LAD occlusion, survival rate. The class given is in vivo, rat. To be noted: for responders at 1 mg/kg / responders at 5 mg/kg: Rattus norvegicus, iv, read-out: % SURV; for responders at 5 mg/kg: control 15.38; for effect on survival of reperfusion arrhythmia, in words: compared with Example 2 (100% survival). The method, then:
Experiments were carried out in male SPRD rats (acceptable body weight range: 300-350 g). The animals were anesthetized with sodium pentobarbital (Nembutal®: 60 mg/kg intraperitoneally) and remained breathing spontaneously. The animals were ventilated with respirator (MTA Kutesz) by using trachea cannule which was inserted after tracheotomy. The standard lead of the ECG II is monitored. Right femoral artery was catheterized and connected to a pressure transducer (BPR-01, Experimetria, Hungary), a preamplifier and pulsotachometer (HG-M, Experimetria, Hungary) for arterial blood pressure and heart rate measurement, respectively. The external jugular vein was cannulated for drug administration. After thoracotomy a silk (braided, coated 4-0) was placed under the left anterior coronary (LAD) artery. After a few minutes' stabilization period, a 5 min occlusion of LAD artery was applied, followed by a 10 min reperfusion period. The survival rate was evaluated.

Assay [2] has as its system carnitine-palmitoyl transferase (CPTI). Briefly: Determination of CPTI inhibition. The class given is biochemical. The settings on record: None = 100; sub-millimolar concentration range.
Assay [3] concerns mouse HSP-70 gene promoter in mouse fibroblast L929 cells. Briefly: HSP-70 promoter-luciferase reporter gene assay. The class given is cell-based. The settings on record: Control = 100; 10 μl of 10^-2 M solution to 1 ml culture, 30 min, 1 hour regeneration. The source says: The activity of HSP-70 was studied by reporter gene assay forming a DNA hybrid. To the promoter sequence of HSP-70 encoding the heat shock protein was fused a gene of a protein that can be detected by a well-measurable enzyme activity. Biotechnological processes were used. As reporter gene luciferase enzyme was employed, the activity of which can be well determined by luminescence measurement. If the promoter of the gene of the luciferase enzyme is substituted by the promoter of the HSP-70 gene, then the change in the activity of the luciferase enzyme i.e. the change of the frequency of the transcription from the gene correlates with the frequency of the transcription of the HSP-70 gene that proceeds in the given circumstances. In this way, if a substance or process influences the expression of the HJSP-70 gene, the effect can be studied through the measurement of the luciferase enzyme activity. The effect of the substances to be tested on the HSP-70 expression was studied in such an experimental system.
A double-stranded DNA circular molecule i.e. a plasmid containing the HSP-70 reporter gene was constructed to perform the measurements. An almost 600 bp long sequence of the mouse HSP-70 gene promoter (5′ direction from the start site of the gene) was fused to the coding sequence of the luciferase gene originated from Photymus pyralis. The applied promoter sequence contained several protein binding sites facilitating the expression of the HSP-70 gene. The HSP promoter-luciferase heterologous gene construct was built in a pBR based plasmid vector that can be selected for neomycin. This HSP-70-luciferase plasmid was transfected into mouse fibroblast L929 cells. The assay was performed as follows.
The HSP-70-luc plasmid containing L929 cells are grown in DMEM (Dulbecco's Modified Eagle's Medium) medium supplemented with 5% FCS (Fetal Calf Serum). 10^4 cells are plated in the wells of a 24-well Costar cell culture plate in 1 ml of culture medium. Test substances are dissolved in PBS (Phosphate Buffered Saline) in 10^−2 M concentration. After attachment of the cells (3-4 hours after plating) 10 μl of the solution are given to the cultures and cells are incubated for 30 min. at 37° C. in a CO2 thermostat. Culture medium is then changed for fresh one (without test substance) and cells are allowed to regenerate for 1 hour at 37° C., then once washed with PBS. After removal of PBS 40 μl of 1× lysis buffer are added to the cells, and the samples are kept on ice for 30 minutes. Then the samples are transferred into Eppendorf vials and centrifuged at 14000 rpm for 20 min at 4° C. 5 μl of the supernatant is added to 25 μl of luciferase assay buffer and the luminescence of the samples is measured for 25 seconds in a luminometer.
(In general: A reporter such as luciferase makes a cellular process visible.)

In assay [4] the target is Moloney murine leukemia virus reverse transcriptase (Moloney murine leukemia virus, UniProt P03355). Nature of the assay: Reverse transcriptase inhibition, (3H)dTTP incorporation. The settings on record: for inhibition at 0.5 µg/mL: concentration 0.5 μg/ml; for inhibition at 1 µg/mL: concentration 1.0 μg/ml; for inhibition at 2 µg/mL: concentration 2 μg/ml; for reverse transcriptase inhibiting effect compared with Nevirapin and AZT, in words: dose dependent, lower than AZT. The class given is biochemical. The method, then: The compounds may be sorted into group of the non-nucleoside type reverse transcriptase inhibitors. Tests were performed on Moloney murine leukemia virus reverse transcriptase that is considered as a good model of the HIV reverse transcriptase enzyme. The experimental assembly was the following.
The assay measures the incorporation of (3H)dTTP into cDNA using poly(dA) template and oligo(dT)12-18 primer. The reaction was carried out in 20 μl volume.
The reaction was started by addition of 5U reverse transcriptase
The reaction mixture was incubated for 40 min at 37° C. Then 15 μl of the reaction mixture was loaded on Whatman DE81 filter discs and filters were washed sequentially with 5% disodium hidrogen phosphate buffer, with water and with 96% (v/v) ethanol. After drying, the filters were placed into scintillation cocktail (OptiPhase, HiSafe, Wallac) and the radioactivity was measured in a Packard Tri-Carb 2200 scintillation counter.
Two compounds with known inhibitory activity were used in the experiments as positive control. AZT is a nucleoside analog while the compound Nevirapin is a non-nucleoside type inhibitor. Nevirapine binds to the so called benzodiazepine binding site of the enzyme. The applied concentrations of the test compounds were in the 0.2-2 μg/ml concentration range.

The next assay deals with CD-1 female mice. Nature of the assay: Prevention of streptozotocin (SZ)-induced type I diabetes mellitus on mice, blood glucose. The assay is classed as in vivo, mouse. The method, then:
The experiments were carried out on CD-1 female mice weighing 17-19 g (Charles River, Hungary). The animals were divided into three groups. Each group consisted of 10 animals. The first group received 160 mg/kg of streptozotocin, i.p. (Sigma), the second group received 160 mg/kg of streptozotocin, and 200 mg/kg of the compound of Example 2 p.o., the third group served as the control. The blood glucose concentration was measured on the third day. The animals were killed, serum samples were taken for insulin determination, and pancreases were removed for histological studies. The blood glucose concentrations can be seen in Table 3.

Another assay relates to HepG2 cells. Nature of the assay: LDH enzyme activity in hypoxia exposed HepG2 cells. The class given is cell-based. To be noted: Homo sapiens, 30 μg/ml, hypoxia 1% O2 24 hours, Hypoxic control = 100, read-out: Relative LDH content, %. The method, then: HepG2 cell were cultured in DMEM medium supplemented with 10% FCS in 5% CO2 containing air at 37° C. 10^5 cells were plated in the wells of Costar 24-well culture plates in 1 ml medium. On the following day, cells were treated with the test compounds in a concentration of 30 μg/ml, then cells were exposed to hypoxia treatment (1% O2, 5% CO2 in nitrogen gas) for 24 hours. A part of the control cultures were treated with water used as the solvent, and another part of them was not exposed to hypoxia. At the end of the hypoxic treatment, medium was removed and cells were washed twice with cold PBS. Cells lysates were prepared in 0.05% Triton X-100 containing phosphate buffer (0.05 M) and after centrifugation (2 min. […]) the LDH activity of the supernatant was determined on the basis of NADH consumption in the presence of sodium piruvate substrate.
The LDH activity of the cells treated with the test compounds and compared to the activity of the control exposed to hypoxia is shown in Table 6.

Structures can show the parent of a compound that is named as a salt.

T1 sequence (P27008 whole entry): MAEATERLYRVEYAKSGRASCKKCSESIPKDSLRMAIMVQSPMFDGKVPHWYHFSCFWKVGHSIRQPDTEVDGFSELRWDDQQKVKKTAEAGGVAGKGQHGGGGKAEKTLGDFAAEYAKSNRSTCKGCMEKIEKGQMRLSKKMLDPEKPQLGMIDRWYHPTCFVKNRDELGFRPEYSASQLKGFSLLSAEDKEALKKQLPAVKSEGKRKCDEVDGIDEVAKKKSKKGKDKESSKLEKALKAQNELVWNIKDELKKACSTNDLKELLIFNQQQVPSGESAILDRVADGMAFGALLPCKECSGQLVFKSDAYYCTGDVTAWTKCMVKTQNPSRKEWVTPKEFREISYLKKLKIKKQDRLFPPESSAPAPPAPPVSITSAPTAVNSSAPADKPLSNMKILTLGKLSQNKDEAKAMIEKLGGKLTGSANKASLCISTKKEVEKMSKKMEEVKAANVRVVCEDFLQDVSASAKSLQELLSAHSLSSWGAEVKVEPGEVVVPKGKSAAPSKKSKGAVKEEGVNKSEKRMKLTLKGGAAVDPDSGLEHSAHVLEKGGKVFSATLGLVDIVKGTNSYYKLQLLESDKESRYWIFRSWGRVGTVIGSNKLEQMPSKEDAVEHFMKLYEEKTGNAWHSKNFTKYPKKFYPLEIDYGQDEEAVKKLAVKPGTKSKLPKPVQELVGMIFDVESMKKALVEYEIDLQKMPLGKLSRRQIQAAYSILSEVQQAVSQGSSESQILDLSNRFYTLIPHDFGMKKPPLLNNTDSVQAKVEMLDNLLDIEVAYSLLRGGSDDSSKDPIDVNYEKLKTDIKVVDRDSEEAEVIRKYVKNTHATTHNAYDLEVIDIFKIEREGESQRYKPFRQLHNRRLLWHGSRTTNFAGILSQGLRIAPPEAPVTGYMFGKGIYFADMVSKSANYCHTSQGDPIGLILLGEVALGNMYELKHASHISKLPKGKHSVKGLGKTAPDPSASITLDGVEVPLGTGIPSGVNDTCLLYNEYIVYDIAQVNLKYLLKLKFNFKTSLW

By inhibition is commonly meant the share of the control response that was lost under treatment. `NC(C=Cc1ccccc1)=NOCCCN1CCCCC1` [Example 1, O-(3-Piperidino-propyl)-cinnamic Acid Amidoxime Dihydrochloride]: in assay [1], the IC50 is 13.9 µM. For the same compound, in the assay on male SPRD rats, the responders at 1 mg/kg came out at 70%; the responders at 5 mg/kg came to 46%; the “effect on survival of reperfusion arrhythmia, in words” value is on record as “similarly outstanding effect”. Besides, the “CPTI test in %” value in assay [2] stood at 60.1 ± 2.1%. Besides, the “Activity (HSP-70 promoter luciferase)” value in assay [3] is 107. For the same compound, the inhibition at 0.2 µg/mL in assay [4] (concentration 0.2 μg/ml, read-out: Enzyme inhibition, %) was found to be 6%. In assay [4] (read-out: Enzyme inhibition, %), the inhibition at 0.5 µg/mL came out at 29% and the inhibition at 1 µg/mL was found to be 44%.
As for `COc1ccc(C=CC(N)=NOCCCN2CCCCC2)cc1OC` [Example 2, O-(3-Piperidino-propyl)-3,4-Dimethoxycinnamic Acid Amidoxime Hydrochloride], the IC50 in assay [1] was 15 µM. In the assay on male SPRD rats, the responders at 1 mg/kg stood at 41.7% and the responders at 5 mg/kg is 100%. Moreover, in the assay on CD-1 female mice (160 mg/kg streptozotocin i.p. + 200 mg/kg compound p.o., blood, third day, control 4.78 ± 2.13), the “GLUCOSE (mean ± s.d.)” value was 8.16 ± 0.65. Moreover, the “blood glucose concentration enhanced by streptozotocin, in words” value in the assay with CD-1 female mice (200 mg/kg p.o.) was “remarkably reduces the blood glucose concentration”. Further, the activity at 30 µg/mL in the assay on HepG2 cells worked out at 118%.
As to `NC(C=Cc1cccnc1)=NOCCCN1CCCCC1` [Example 3, O-(3-Piperidino-propyl)-3-(3-Pyridyl)acrylic Acid Amidoxime Hydrochloride], the IC50 in assay [1] is 8.32 µM. Moreover, in the assay on male SPRD rats, the responders at 5 mg/kg was found to be 40%. Besides, the “CPTI test in %” value in assay [2] was 68.8 ± 3.2%. In addition, the “Activity (HSP-70 promoter luciferase)” value in assay [3] is 207. Besides, in assay [4] (read-out: Enzyme inhibition, %), the inhibition at 0.5 µg/mL was determined as 7%, the inhibition at 1 µg/mL is 45% and the inhibition at 2 µg/mL is 70%. Further, the “reverse transcriptase inhibiting effect compared with Nevirapin and AZT, in words” value in assay [4] was “higher than that of Nevirapin”.
Turning to `NC(C=Cc1ccccc1)=NOCC(O)CN1CCCCC1` (stereo not drawn) [Example 4, O-(3-Piperidino-2-hydroxy-propyl)-cinnamic Acid Amidoxime Dihydrochloride], the IC50 in assay [1] was 27 µM. In addition, in the assay with male SPRD rats, the responders at 1 mg/kg came out at 16.7%; the responders at 5 mg/kg is 81.8%; the “effect on survival of reperfusion arrhythmia, in words” value is reported as “similarly outstanding effect”. In assay [3], the “Activity (HSP-70 promoter luciferase)” value worked out at 250. Further, in the assay with HepG2 cells, the activity at 30 µg/mL is 118%. The “reverse transcriptase inhibiting effect compared with Nevirapin and AZT, in words” value in assay [4] was “higher than that of Nevirapin”.
As to `NC(C=Cc1cccnc1)=NOCC(O)CN1CCCCC1` (stereo not drawn) [Example 5, O-(3-Piperidino-2-hydroxy-propyl)-3-(3-Pyridyl)acrylic Acid Amidoxime Dihydrochloride], the IC50 in assay [1] is 58.1 µM. Moreover, the responders at 5 mg/kg in the assay with male SPRD rats stood at 50%. In assay [3], the “Activity (HSP-70 promoter luciferase)” value is given as 199. Further, in assay [4] (read-out: Enzyme inhibition, %), the inhibition at 1 µg/mL amounted to 52% and the inhibition at 2 µg/mL turned out to be 57%. Further, the “reverse transcriptase inhibiting effect compared with Nevirapin and AZT, in words” value in assay [4] was “higher than that of Nevirapin”.

(Values after US6500823B1, “Unsaturated hydroximic acid derivatives as per abstract inhibitors” (N-Gene Research Laboratories, Inc., priority 1998, dated 2002).)
